Several values for one entry are separate records, joined by “and”; a condition that tells them apart may be missing. Equal values may be shown once. Read-outs that look alike come from different tables or passages of the source.
Key:
[1] = tested on: primary human T cells; assay: IL12 (p70) in lentivirus transduced primary human T cells, Bazedoxifene dose response (MSD assay); type: cell-based
Protocol: Primary human T cells were expanded with CD3/CD28 Dynabeads, transduced with lentivirus constructs and expanded for 10 days. Beads were removed and cells were frozen. T cells were later thawed and 100,000 cells were treated overnight with different doses of Bazedoxifene (BZD). Transduction efficiency was assessed by flow cytometry using CD19-Fc staining. The response of IL12 in CD19 CAR-IL12 tandem constructs to increasing concentrations of ligand was measured using OT-001736 construct with increasing doses of BZD starting at 0.01 nM to up to 3 μM for 23 hours. IL12 levels were measured using MSD assay. Controls tested in the experiment included OT-001357, which constitutively expresses IL12 and OT-001407, which is not expected to show any IL12 expression.
Additional ER mutants were tested in primary human T cells as described above, except T cells were treated on day 9 of expansion, and not frozen and thawed prior to the experiment (Table 15).

[2] = 3 mg intravenous (IV); cited from earlier work
[3] = Pharmacokinetics of Bazedoxifene in CD-1 mice (plasma, LC-MS-MS); type: in vivo; design: Plasma Bazedoxifene Concentrations: unit not given here

In the case of `Cc1c(-c2ccc(O)cc2)n(Cc2ccc(OCCN3CCCCCC3)cc2)c2ccc(O)cc12` [Bazedoxifene], the EC50 ([1]; T-cell, BZD dose response in primary human T cells expressing OT-001736, read-out: EC50 of IL12 induction) is listed as 200 nM, the “lowest BZD concentration that induced IL12 expression” value ([1]; primary human T cells expressing OT-001736) is listed as 0.05 µM and the Cmax [2] is listed as ~100 nM. The “Plasma Bazedoxifene Concentrations” value ([3]; 10 mg/kg single dose, 0.25 hours post dose, free and bound combined, individual animals) was 0.062 and 0.127 and 0.287, the “Plasma Bazedoxifene Concentrations” value ([3]; 10 mg/kg single dose, 0.5 hours post dose, free and bound combined, individual animals) was 0.050 and 0.091 and the “Plasma Bazedoxifene Concentrations” value ([3]; 10 mg/kg single dose, 1 hours post dose, free and bound combined, individual animals) was 0.089 and 0.105. For the same compound, the “Plasma Bazedoxifene Concentrations” value ([3]; 10 mg/kg single dose, 2 hours post dose, free and bound combined, individual animals) was 0.096 and 0.107, the “Plasma Bazedoxifene Concentrations” value ([3]; 10 mg/kg single dose, 4 hours post dose, free and bound combined, individual animals) was 0.053 and 0.055 and the “Plasma Bazedoxifene Concentrations” value ([3]; 10 mg/kg single dose, 7 hours post dose, free and bound combined, individual animals) was 0.036 and 0.035. The “Plasma Bazedoxifene Concentrations” value ([3]; 10 mg/kg single dose, 10 hours post dose, free and bound combined, individual animals) was 0.033 and 0.028 and 0.016, the “Plasma Bazedoxifene Concentrations” value ([3]; 10 mg/kg single dose, 24 hours post dose, free and bound combined, individual animals) was 0.005 and 0.003 and 0.004 and the “Plasma Bazedoxifene Concentrations” value ([3]; 100 mg/kg single dose, 0.25 hours post dose, free and bound combined, individual animals) was 1.268 and 0.949 and 2.590. The “Plasma Bazedoxifene Concentrations” value ([3]; 100 mg/kg single dose, 0.5 hours post dose, free and bound combined, individual animals) was 2.113 and 2.208 and 4.544, the “Plasma Bazedoxifene Concentrations” value ([3]; 100 mg/kg single dose, 1 hours post dose, free and bound combined, individual animals) was 2.590 and 5.138 and the “Plasma Bazedoxifene Concentrations” value ([3]; 100 mg/kg single dose, 2 hours post dose, free and bound combined, individual animals) was 2.272 and 4.161. For the same compound, the “Plasma Bazedoxifene Concentrations” value ([3]; 100 mg/kg single dose, 4 hours post dose, free and bound combined, individual animals) was 1.208 and 1.902, the “Plasma Bazedoxifene Concentrations” value ([3]; 100 mg/kg single dose, 7 hours post dose, free and bound combined, individual animals) was 0.894 and 0.463 and 0.970 and the “Plasma Bazedoxifene Concentrations” value ([3]; 100 mg/kg single dose, 10 hours post dose, free and bound combined, individual animals) was 0.754 and 0.497 and 0.713. For the same compound, the “Plasma Bazedoxifene Concentrations” value ([3]; 100 mg/kg single dose, 24 hours post dose, free and bound combined, individual animals) was 0.023 and 0.179 and 0.025, the “Plasma Bazedoxifene Concentrations” value ([3]; 200 mg/kg single dose, 0.25 hours post dose, free and bound combined, individual animals) was 1.495 and 1.013 and the “Plasma Bazedoxifene Concentrations” value ([3]; 200 mg/kg single dose, 0.5 hours post dose, free and bound combined, individual animals) was 2.314 and 1.707. For the same compound, the “Plasma Bazedoxifene Concentrations” value ([3]; 200 mg/kg single dose, 1 hours post dose, free and bound combined, individual animals) was 3.397 and 4.013, the “Plasma Bazedoxifene Concentrations” value ([3]; 200 mg/kg single dose, 2 hours post dose, free and bound combined, individual animals) was 2.590 and 3.567 and the “Plasma Bazedoxifene Concentrations” value ([3]; 200 mg/kg single dose, 4 hours post dose, free and bound combined, individual animals) was 1.327 and 2.357. For the same compound, the “Plasma Bazedoxifene Concentrations” value ([3]; 200 mg/kg single dose, 7 hours post dose, free and bound combined, individual animals) was 0.866 and 0.726 and 1.189, the “Plasma Bazedoxifene Concentrations” value ([3]; 200 mg/kg single dose, 10 hours post dose, free and bound combined, individual animals) was 0.699 and 0.732 and 0.715 and the “Plasma Bazedoxifene Concentrations” value ([3]; 200 mg/kg single dose, 24 hours post dose, free and bound combined, individual animals) was 0.297 and 0.314 and 0.180. It also gave a concentration at 0.5 h ([3]; CD-1, mouse, plasma, oral, 10 mg/kg, 10 mg/kg single dose, 0.5 hours post dose, free and bound combined, individual animals, read-out: Plasma Bazedoxifene Concentrations) of 71 nM, a concentration at 1 h ([3]; CD-1, mouse, plasma, oral, 10 mg/kg, 10 mg/kg single dose, 1 hours post dose, free and bound combined, individual animals, read-out: Plasma Bazedoxifene Concentrations) of 97 nM and a concentration at 2 h ([3]; CD-1, mouse, plasma, oral, 10 mg/kg, 10 mg/kg single dose, 2 hours post dose, free and bound combined, individual animals, read-out: Plasma Bazedoxifene Concentrations) of 77 nM. It also gave a concentration at 4 h ([3]; CD-1, mouse, plasma, oral, 10 mg/kg, 10 mg/kg single dose, 4 hours post dose, free and bound combined, individual animals, read-out: Plasma Bazedoxifene Concentrations) of 49 nM, a concentration at 7 h ([3]; CD-1, mouse, plasma, oral, 10 mg/kg, 10 mg/kg single dose, 7 hours post dose, free and bound combined, individual animals, read-out: Plasma Bazedoxifene Concentrations) of 34 nM and a concentration at 1 h ([3]; CD-1, mouse, plasma, oral, 100 mg/kg, 100 mg/kg single dose, 1 hours post dose, free and bound combined, individual animals, read-out: Plasma Bazedoxifene Concentrations) of 3590 nM. It also gave a concentration at 2 h ([3]; CD-1, mouse, plasma, oral, 100 mg/kg, 100 mg/kg single dose, 2 hours post dose, free and bound combined, individual animals, read-out: Plasma Bazedoxifene Concentrations) of 2820 nM, a concentration at 4 h ([3]; CD-1, mouse, plasma, oral, 100 mg/kg, 100 mg/kg single dose, 4 hours post dose, free and bound combined, individual animals, read-out: Plasma Bazedoxifene Concentrations) of 1380 nM and a concentration at 0.25 h ([3]; CD-1, mouse, plasma, oral, 200 mg/kg, 200 mg/kg single dose, 0.25 hours post dose, free and bound combined, individual animals, read-out: Plasma Bazedoxifene Concentrations) of 1060 nM. It also gave a concentration at 0.5 h ([3]; CD-1, mouse, plasma, oral, 200 mg/kg, 200 mg/kg single dose, 0.5 hours post dose, free and bound combined, individual animals, read-out: Plasma Bazedoxifene Concentrations) of 1510 nM, a concentration at 1 h ([3]; CD-1, mouse, plasma, oral, 200 mg/kg, 200 mg/kg single dose, 1 hours post dose, free and bound combined, individual animals, read-out: Plasma Bazedoxifene Concentrations) of 2400 nM and a concentration at 2 h ([3]; CD-1, mouse, plasma, oral, 200 mg/kg, 200 mg/kg single dose, 2 hours post dose, free and bound combined, individual animals, read-out: Plasma Bazedoxifene Concentrations) of 3270 nM. The concentration at 4 h ([3]; CD-1, mouse, plasma, oral, 200 mg/kg, 200 mg/kg single dose, 4 hours post dose, free and bound combined, individual animals, read-out: Plasma Bazedoxifene Concentrations) was 1580 nM and the Cmax ([3]; CD-1, mouse, plasma, dose of 200 mg/kg per os (PO), read-out: Murine Cmax) was ~3000 nM.
